Test results as given in patent US8912227B1, “Bicyclic pyrrole derivatives useful as agonists of GPR120” (Janssen Pharmaceutica NV, priority 2014, dated 2014).

Assays:
Human GPR120 short form [1] = target: T1, Human GPR120 short form (Homo sapiens, UniProt Q5NUL3); test: Human GPR120 calcium flux assay, Procedure Calcium A; assay type: cell-based; details: HEK-293 cells expressing human GPR120 short form, 2500 cells/well, FLIPR
T1 construct: expressed in transfected cells
T1 sequence (Q5NUL3 1-361): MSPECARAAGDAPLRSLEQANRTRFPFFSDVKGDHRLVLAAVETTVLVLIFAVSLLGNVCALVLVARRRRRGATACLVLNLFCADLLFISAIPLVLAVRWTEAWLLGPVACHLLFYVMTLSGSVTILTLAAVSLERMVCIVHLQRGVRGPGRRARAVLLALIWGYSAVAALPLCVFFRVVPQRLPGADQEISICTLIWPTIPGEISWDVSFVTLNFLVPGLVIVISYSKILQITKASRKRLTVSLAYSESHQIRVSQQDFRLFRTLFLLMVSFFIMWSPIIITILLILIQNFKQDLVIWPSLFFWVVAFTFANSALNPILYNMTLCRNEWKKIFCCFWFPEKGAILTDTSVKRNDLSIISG
From the text: (§1) This in vitro assay serves to assess test compound agonist activity against the short splice variant (SVS with Accession number NM_001195755.1 confirmed by sequencing data) of the GPR120 receptor. The Human Short splice variant #2 (NM_001195755.1) is missing an in-frame coding exon compared to variant 1 (the Human Long splice variant NM_181745.3), resulting in a shorter isoform (GPR120-S) lacking a 16 aa protein segment compared to isoform GPR120-L. The assay platform utilizes HEK-293 cells stably transfected to express the Human GPR120 short form. These cells are first loaded with the Ca^+2 sensitive dye, Fluo-4 NW. Upon stimulation, intracellular released Ca^+2 can bind to the dye and alter its fluorescence intensity. This increase in fluorescence signal, and thus the flux in intracellular [Ca^2+], is detected and quantitated by fluorescence imaging using a FLIPR reader. The effect of the agonist is measured as a function of concentration and used to calculate an EC50 based upon a response curve.
In this procedure 2500 cells/well were employed.
(§2) A Human GPR120 clone (Genbank accession number NM_001195755.1) was placed into the pcDNA3.1 mammalian expression vector carrying the neomycin resistance gene. A stable mammalian cell was generated by placing the above clone into a HEK293 background. Clonal cells responding to long chain fatty acids had expression levels of GPR120 confirmed by RT-qPCR. Human HEK-GPR120 cells were cultured in Dulbecco's Modified Eagle's Medium (DMEM)/F12 medium supplemented with 10% fetal bovine serum (FBS), 1% L-Glutamine and 1% penicillin/streptomycin and 0.5 mg/ml G-418. Cells were split 2 times a week to keep the cells in the log-phase growth.
(§3) In preparation for the assay, HEK cells stably transfected with Human GPR120 (2.5K cells per well in 25 uL growth medium) were seeded into 384-well plates and then incubated overnight (37° C., 5% CO2). The next day, the media was changed to 20 μl assay buffer and the cell starved for 1 h at 37° C. The dye loading solution (2× dye) was prepared using 10 ml assay buffer, 100 μl of 250 mM probenecid, 1 bottle of Component A, and 20 μl of dye in DMSO. Twenty μl of the 2× dye loading buffer was then added to each well. The plates were incubated at 37° C. for 30 min, then at room temperature for an additional 15 minutes, before performing the assay on FLIPR.
(§4) Test compounds were prepared in assay buffer (2 μl of test compound+198 μl assay buffer, final DMSO in assay plate is 0.2%) at the desired concentration, more particularly at 100 μM, 50 μM, 25 μM, 12.5 μM, 6.25 μM, 3.125 μM, 1.562 μM, 0.781 μM, 0.391 μM, 0.195 μM, 0.098 μM, 0.049 μM, 0.024 μM and 0.012 μM.
(§5) The assay was performed on a FLIPR plate reader using the following parameters. Baseline was read for 10 seconds at 1 sec intervals. The program was set to transfer 10 μL of ligand from compound plate to cell plate after baseline reading. Aspiration was executed at: 10 μl/sec speed, 4.6 μl height; Dispensing was executed at: 30 μl/sec speed, 45 μl height. After compound addition, each well was read for 300 sec, with measurements collected at 1 sec intervals.
(§6) The kinetic data from the FLIPR was based upon a 5 minute window for data collection. The fluorescence of each sample well was used for individual calculations of a normalized RFU value, which was defined as maximum response minus the minimum response. The normalized fluorescence reading (RFU) was calculated as follows: RFU=Fmax−Fmin
(§7) The data were fitted to a sigmoidal dose-response curve with a variable Hill slope (<2) using nonlinear regression with GraphPad Prism 5.0 to calculate the EC50 values. The Fitting Equation was: Y=Bottom+(Top−Bottom)/(1+10^((LogEC50−X)*HillSlope)), where X is the log of the concentration and Y is the response.

Human GPR120 short form [2] = target: T1, Human GPR120 short form; test: Human GPR120 calcium flux assay, Procedure Calcium B; assay type: cell-based; details: HEK-293 cells expressing human GPR120 short form, 4200 cells/well, FLIPR
From the text: as §1
In this procedure 4200 cells/well were employed.
as §2, §3, §4, §5, §6, §7

SMILES | EC50 (Human GPR120 short form [1]) | EC50 (Human GPR120 short form [2])
COc1ccc(-n2ccc(C(F)(F)F)c2COc2c(F)cc(CCCO)cc2F)cn1 [Compound 52, 3-(3,5-difluoro-4-[[1-(6-methoxypyridin-3-yl)-3-(trifluoromethyl)-1H-pyrrol-2-yl]methoxy]phenyl)propan-1-ol] | 285 nM | 71 nM
O=C(O)CCc1ccc(OCc2c(C(F)(F)F)ccn2-c2ccc(Br)cc2)c(F)c1F [Compound 20, 3-(4-{[1-(4-Bromophenyl)-3-(trifluoromethyl)-1H-pyrrol-2-yl]methoxy}-2,3-difluorophenyl)propanoic acid] | 1270 nM | 289 nM
COc1ccc(-n2ccc(C(F)(F)F)c2COc2c(F)cc(CCC(=O)O)cc2F)cn1 [Compound 51, 3-(3,5-difluoro-4-[[1-(6-methoxypyridin-3-yl)-3-(trifluoromethyl)-1H-pyrrol-2-yl]methoxy]phenyl)propanoic acid] | 675 nM | 197 nM
N#Cc1ccn(-c2ccc(Cl)cc2)c1COc1ccc(CCC(=O)O)c(F)c1F [Compound 9, 3-(4-{[1-(4-Chlorophenyl)-3-cyano-1H-pyrrol-2-yl]methoxy}-2,3-difluorophenyl)propanoic acid] | 3710 nM | 1360 nM
CCc1ccc(-n2ccc(C(F)(F)F)c2COc2c(F)cc(CCCO)cc2F)cn1 [Compound 55, 3-(4-[[1-(6-ethylpyridin-3-yl)-3-(trifluoromethyl)-1H-pyrrol-2-yl]methoxy]-3,5-difluorophenyl)propan-1-ol] | 215 nM | 34 nM
Cc1ccc(-n2ccc(C(F)(F)F)c2COc2ccc(CCC(=O)O)c(F)c2F)cn1 [Compound 53, 3-(2,3-Difluoro-4-{[1-(6-methylpyridin-3-yl)-3-(trifluoromethyl)-1H-pyrrol-2-yl]methoxy}phenyl)propanoic acid] | 1990 nM | 428 nM
Cc1c(CCCO)ccc(OCc2c(Br)ccn2-c2ccc(Cl)cc2)c1C [Compound 13, 3-(4-{[3-Bromo-1-(4-chlorophenyl)-1H-pyrrol-2-yl]methoxy}-2,3-dimethylphenyl)propan-1-ol] | 1560 nM | 899 nM
O=C(O)CCc1cc(F)c(OCc2c(C(F)(F)F)ccn2-c2ccc(Br)cc2)c(F)c1 [Compound 22, 3-(4-{[1-(4-Bromophenyl)-3-(trifluoromethyl)-1H-pyrrol-2-yl]methoxy}-3,5-difluorophenyl)propanoic acid] | 1520 nM | 112 nM
Cc1c(CCC(=O)O)ccc(OCc2c(C#N)ccn2-c2ccc(Cl)cc2)c1C [Compound 12, 3-(4-{[1-(4-Chlorophenyl)-3-cyano-1H-pyrrol-2-yl]methoxy}-2,3-dimethylphenyl)propanoic acid] | 4260 nM | 1140 nM
COc1ccc(-n2ccc(C(F)(F)F)c2COc2ccc(CCCO)c(F)c2F)cn1 [Compound 50, 3-(2,3-difluoro-4-[[1-(6-methoxypyridin-3-yl)-3-(trifluoromethyl)-1H-pyrrol-2-yl]methoxy]phenyl)propan-1-ol] | 395 nM | 58 nM
